26 compounds from patent US11590116B2 (THERAVANCE BIOPHARMA R&D IP, LLC, priority 2019, dated 2023) can be followed below.

The subject of experiment [1] is TGF-β-stimulated SMAD3 phosphorylation in BEAS-2B cells. Nature of the experiment: Cellular ALK5 potency assay, inhibition of TGF-β stimulated pSMAD3 formation in BEAS-2B cells. It is filed as cell-based. Particulars: Homo sapiens; inhibition of TGF-β stimulated pSMAD3 formation, BEAS-2B cells; read-out: BEAS2B pIC50 (converted). A digest of the protocol: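 AlphaLISA pSMAD3 read-out, beads incubated overnight. Human BEAS-2B cells: 1 h compound preincubation (37 °C, 5% CO2), then 30 min TGF-β at 10 ng/mL final, immediate lysis. Values are pIC50 relative to stimulated, compound-free baseline.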

Experiment [2] has as its target T1, recombinant human ALK5 (TGF-βR1) protein (Homo sapiens, UniProt P36897).
T1 construct: purchased Life Technologies PR9075A
T1 sequence (P36897 34-503): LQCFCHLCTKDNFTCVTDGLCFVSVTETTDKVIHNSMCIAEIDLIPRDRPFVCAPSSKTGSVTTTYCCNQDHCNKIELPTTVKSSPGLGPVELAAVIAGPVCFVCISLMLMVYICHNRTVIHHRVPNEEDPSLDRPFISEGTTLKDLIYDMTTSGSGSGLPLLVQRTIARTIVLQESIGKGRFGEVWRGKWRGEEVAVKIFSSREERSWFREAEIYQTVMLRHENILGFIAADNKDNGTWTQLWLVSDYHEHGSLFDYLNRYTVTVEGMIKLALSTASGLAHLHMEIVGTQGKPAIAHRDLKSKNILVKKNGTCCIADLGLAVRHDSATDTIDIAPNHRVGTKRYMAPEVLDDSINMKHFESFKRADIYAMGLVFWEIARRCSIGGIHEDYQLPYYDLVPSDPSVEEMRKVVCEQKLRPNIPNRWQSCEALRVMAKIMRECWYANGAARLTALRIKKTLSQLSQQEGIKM
Description: Biochemical ALK5 (TGF-βR1) assay to measure pKi (LANCE Ultra ULight kinase assay). Particulars: apparent pKi from pIC50 by Cheng-Prusoff, read-out: ALK5 pKi (converted). An outline of the steps: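 After a 60 min room-temperature preincubation of ALK5 with compound, phosphorylation proceeds 60 min at 37 °C on ATP addition (125 μM as 5× stock). Detection: Eu-labelled phospho-Thr1342 Topo IIα antibody in EDTA buffer, pH 7.0; emission 665 nm.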
A general note: TR-FRET usually uses a lanthanide donor and a delayed reading to cut background.

`Cc1cccc(-c2[nH]cnc2-c2ccc3ncc(C4=CCC(O)CC4)cc3c2)n1` (stereo not shown) [Compound 432, 4-[6-[5-(6-methyl-2-pyridyl)-1H-imidazol-4-yl]-3-quinolyl]cyclohex-3-en-1-ol]: the IC50 in experiment [1] is < 20 nM. Further, the Ki in experiment [2] was < 0.0316 nM.

As for `Cc1nc(-c2nc3ccccn3c2-c2ccc3ncc(N4CCC(N5CCN(C)CC5)CC4)cc3n2)ccc1F` [Compound 47, 2-[2-(5-fluoro-6-methyl-2-pyridyl)imidazo[1,2-a]pyridin-3-yl]-7-[4-(4-methylpiperazin-1-yl)-1-piperidyl]-1,5-naphthyridine], in experiment [1], the IC50 was 200 to 1260 nM. The Ki in experiment [2] was 0.0398 to 0.316 nM.

For `Cc1cccc(-c2[nH]cnc2-c2ccc3ncc(-c4cccc(N5CCNCC5)c4)cc3c2)n1` [Compound 581, 6-[5-(6-methyl-2-pyridyl)-1H-imidazol-4-yl]-3-(3-piperazin-1-ylphenyl)quinoline], the IC50 in experiment [1] is 25.1 to 158 nM. Further, the Ki in experiment [2] is < 0.0316 nM.

With `Cc1cccc(-c2n[nH]cc2-c2ccc3nccc(CNCCN4CCOCC4)c3n2)n1` [Compound 816, N-[[6-[3-(6-methyl-2-pyridyl)-1H-pyrazol-4-yl]-1,5-naphthyridin-4-yl]methyl]-2-morpholino-ethanamine], the IC50 in experiment [1] is 25.1 to 158 nM. Besides, the Ki in experiment [2] was 0.0398 to 0.316 nM.

For the compound `Cc1cccc(-c2[nH]cnc2-c2ccc3ncc(Nc4ccc(N5CCN(C)CC5)cn4)cc3n2)n1` [Compound 653, N-(5-(4-methylpiperazin-1-yl)pyridin-2-yl)-6-(5-(6-methylpyridin-2-yl)-1H imidazol-4-yl)-1,5-naphthyridin-3-amine], in experiment [1], the IC50 is 25.1 to 158 nM. The Ki in experiment [2] was 0.0398 to 0.316 nM.

Take `Cc1cccc(-c2[nH]cnc2-c2ccc3ncc(C(=O)OC[C@@H]4CCCN4)cc3c2)n1` [Compound 762, [(2S)-pyrrolidin-2-yl]methyl 6-[5-(6-methyl-2-pyridyl)-1H-imidazol-4-yl]quinoline-3-carboxylate]: in experiment [1], the IC50 is 25.1 to 158 nM. In addition, in experiment [2], the Ki is 0.398 to 3.16 nM.

Take `Cc1cccc(-c2n[nH]cc2-c2ccc3nccc(CNCCN4CCN(C(C)C)CC4)c3n2)n1` [Compound 820, 2-(4-isopropylpiperazin-1-yl)-N-[[6-[3-(6-methyl-2-pyridyl)-1H-pyrazol-4-yl]-1,5-naphthyridin-4-yl]methyl]ethanamine]: the IC50 in experiment [1] was 25.1 to 158 nM. The Ki in experiment [2] was 0.0398 to 0.316 nM.

As for `Cc1cccc(-c2n[nH]cc2-c2ccc3ncc(OCCN4CCN(C(C)C)CC4)cc3n2)n1` [Compound 241, 7-[2-(4-isopropylpiperazin-1-yl)ethoxy]-2-[3-(6-methyl-2-pyridyl)-1H-pyrazol-4-yl]-1,5-naphthyridine], in experiment [1], the IC50 was 200 to 1260 nM. The Ki in experiment [2] was 0.0398 to 0.316 nM.

On to `Cc1cccc(-c2[nH]ncc2-c2ccc3nccc(C(=O)OC4CNC4)c3c2)n1` [Compound 1237, azetidin-3-yl 6-[5-(6-methyl-2-pyridyl)-1H-pyrazol-4-yl]quinoline-4-carboxylate], for which, in experiment [1], the IC50 is 25.1 to 158 nM. Further, in experiment [2], the Ki is 0.0398 to 0.316 nM.

On to `Cc1cccc(-c2[nH]cnc2-c2ccc3ncc(NCC4CNC4)cc3c2)n1` [Compound 11, N-(azetidin-3-ylmethyl)-6-[5-(6-methyl-2-pyridyl)-1H-imidazol-4-yl]quinolin-3-amine], for which the IC50 in experiment [1] is 25.1 to 158 nM. Besides, the Ki in experiment [2] is 0.0398 to 0.316 nM.

On to `Cc1cccc(-c2[nH]cnc2-c2ccc3ncc(-c4ncc(C(=O)O)cn4)cc3c2)n1` [Compound 1140, 2-[6-[5-(6-methyl-2-pyridyl)-1H-imidazol-4-yl]-3-quinolyl]pyrimidine-5-carboxylic acid], for which, in experiment [1], the IC50 is 200 to 1260 nM. In addition, the Ki in experiment [2] is 0.0398 to 0.316 nM.

`Cc1nc(-c2n[nH]cc2-c2ccc3ncc(-c4nc5c(s4)CNCC5)cc3n2)ccc1F` [Compound 329, 2-[6-[3-(5-fluoro-6-methyl-2-pyridyl)-1H-pyrazol-4-yl]-1,5-naphthyridin-3-yl]-4,5,6,7-tetrahydrothiazolo[5,4-c]pyridine]: in experiment [1], the IC50 was 25.1 to 158 nM. Also, in experiment [2], the Ki was 0.0398 to 0.316 nM.

As to `Cc1cccc(-c2[nH]cnc2-c2ccc3nccc(C(=O)OCCN4CCNCC4)c3c2)n1` [Compound 1121, 2-piperazin-1-ylethyl 6-[5-(6-methyl-2-pyridyl)-1H-imidazol-4-yl]quinoline-4-carboxylate], in experiment [1], the IC50 is 200 to 1260 nM. Further, in experiment [2], the Ki is 0.398 to 3.16 nM.

Consider `Cc1cccc(-c2[nH]cnc2-c2ccc3ncc(-c4ccc(C(=O)OC5CNC5)cn4)cc3c2)n1` [Compound 1027, azetidin-3-yl 6-[6-[5-(6-methyl-2-pyridyl)-1H-imidazol-4-yl]-3-quinolyl]pyridine-3-carboxylate], for which the IC50 in experiment [1] is 25.1 to 158 nM. The Ki in experiment [2] was 0.0398 to 0.316 nM.

On to `Cc1cccc(-c2n[nH]cc2-c2ccc3ncc(C(=O)NCCCN4CCOCC4)cc3n2)n1` [Compound 109, 6-[3-(6-methyl-2-pyridyl)-1H-pyrazol-4-yl]-N-(3-morpholinopropyl)-1,5-naphthyridine-3-carboxamide], for which, in experiment [1], the IC50 was 25.1 to 158 nM. In experiment [2], the Ki was 0.0398 to 0.316 nM.

Regarding `Cc1cccc(-c2[nH]cnc2-c2ccc3ncc(-c4ccccn4)cc3c2)n1` [Compound 367, 6-[5-(6-methyl-2-pyridyl)-1H-imidazol-4-yl]-3-(2-pyridyl)quinoline], in experiment [1], the IC50 is 25.1 to 158 nM. Further, the Ki in experiment [2] is 0.0398 to 0.316 nM.

Take `Cc1cccc(-c2n[nH]cc2-c2ccc3ncc(N4CCC(N(C)C)C4)cc3n2)n1` (racemic) [Compound 505, rac-(3S)-N,N-dimethyl-1-[6-[3-(6-methyl-2-pyridyl)-1H-pyrazol-4-yl]-1,5-naphthyridin-3-yl]pyrrolidin-3-amine]: the IC50 in experiment [1] is 25.1 to 158 nM. The Ki in experiment [2] was < 0.0316 nM.

For the compound `Cc1cccc(-c2[nH]cnc2-c2ccc3ncc(-c4ccc(C(=O)OC5CCNCC5)nc4)cc3c2)n1` [Compound 110, piperidin-4-yl 5-(6-(5-(6-methylpyridin-2-yl)-1H-imidazol-4-yl)quinolin-3-yl)picolinate], the IC50 in experiment [1] was 25.1 to 158 nM. Further, the Ki in experiment [2] was 0.0398 to 0.316 nM.

`Cc1cccc(-c2[nH]cnc2-c2ccc3ncc(-c4cnc(C(=O)OCC5CNC5)nc4)cc3c2)n1` [Compound 1052, azetidin-3-ylmethyl 5-[6-[5-(6-methyl-2-pyridyl)-1H-imidazol-4-yl]-3-quinolyl]pyrimidine-2-carboxylate]: the IC50 in experiment [1] is 200 to 1260 nM. Besides, the Ki in experiment [2] is 0.398 to 3.16 nM.

For the compound `Cc1cccc(-c2n[nH]cc2-c2ccc3ncc(C#N)cc3n2)n1` [Compound 236, 6-[3-(6-methyl-2-pyridyl)-1H-pyrazol-4-yl]-1,5-naphthyridine-3-carbonitrile], the IC50 in experiment [1] is 25.1 to 158 nM. Also, the Ki in experiment [2] is 0.398 to 3.16 nM.

For the compound `Cc1cccc(-c2[nH]cnc2-c2ccc3ncc(C(=O)OCCN4CC5(CCNCC5)C4)cc3c2)n1` [Compound 891, 2-(2,7-diazaspiro[3.5]nonan-2-yl)ethyl 6-(5-(6-methylpyridin-2-yl)-1H-imidazol-4-yl)quinoline-3-carboxylate], the IC50 in experiment [1] is 200 to 1260 nM. In experiment [2], the Ki was 0.0398 to 0.316 nM.

Turning to `Cc1cccc(-c2n[nH]cc2-c2ccc3nccc(CN4CC(N5CCOCC5)C4)c3n2)n1` [Compound 850, 4-[1-[[6-[3-(6-methyl-2-pyridyl)-1H-pyrazol-4-yl]-1,5-naphthyridin-4-yl]methyl]azetidin-3-yl]morpholine], the IC50 in experiment [1] was 200 to 1260 nM. The Ki in experiment [2] is 0.398 to 3.16 nM.

`Cc1cccc(-c2[nH]cnc2-c2ccc3ncc(-c4ncc(C(=O)OC5CNC5)cn4)cc3c2)n1` [Compound 1063, azetidin-3-yl 2-[6-[5-(6-methyl-2-pyridyl)-1H-imidazol-4-yl]-3-quinolyl]pyrimidine-5-carboxylate]: the IC50 in experiment [1] was 25.1 to 158 nM. In experiment [2], the Ki was 0.0398 to 0.316 nM.

Consider `Cc1cccc(-c2n[nH]cc2-c2ccc3ncc(-c4cn(Cc5c[nH]cn5)nn4)cc3n2)n1` [Compound 101, 7-[1-(1H-imidazol-4-ylmethyl)triazol-4-yl]-2-[3-(6-methyl-2-pyridyl)-1H-pyrazol-4-yl]-1,5-naphthyridine], for which the IC50 in experiment [1] is 200 to 1260 nM. Besides, the Ki in experiment [2] is < 0.0316 nM.

As to `Cc1cccc(-c2[nH]cnc2-c2ccc3ncc(-c4cccc(C(=O)OC5CNC5)n4)cc3c2)n1` [Compound 1128, azetidin-3-yl 6-[6-[5-(6-methyl-2-pyridyl)-1H-imidazol-4-yl]-3-quinolyl]pyridine-2-carboxylate], the IC50 in experiment [1] was 25.1 to 158 nM. In experiment [2], the Ki is 0.0398 to 0.316 nM.

Turning to `Cc1cccc(-c2[nH]cnc2-c2ccc3ncc(NCCNC4CNC4)cc3c2)n1` [Compound 189, N′-(azetidin-3-yl)-N-[6-[5-(6-methyl-2-pyridyl)-1H-imidazol-4-yl]-3-quinolyl]ethane-1,2-diamine], the IC50 in experiment [1] was 200 to 1260 nM. In addition, in experiment [2], the Ki is 0.0398 to 0.316 nM.
